Experimental data: ChEMBL document CHEMBL4138123, “Design, synthesis and biological evaluation of novel pyrazolochalcones as potential modulators of PI3K/Akt/mTOR pathway and inducers of apoptosis in breast cancer cells” (Eur J Med Chem, 2017)

Legend:
Format in all cases: functional
HCT-116 = test: Cytotoxicity against human HCT116 cells assessed as cell growth at 10 uM after 48 hrs by sulforhodamine B assay relative to control; conditions: HCT-116, 48 h, read-out: Activity
SF-539 = test: Cytotoxicity against human SF539 cells assessed as cell growth at 0.1 uM after 48 hrs by sulforhodamine B assay relative to control; conditions: SF-539, 48 h, read-out: Activity
MDA-MB-435 = test: Cytotoxicity against human MDA-MB-435 cells assessed as cell growth at 100 uM after 48 hrs by sulforhodamine B assay relative to control; conditions: MDA-MB-435, 48 h, read-out: Activity
K562 [1] = test: Cytotoxicity against human K562 cells assessed as cell growth at 0.1 uM after 48 hrs by sulforhodamine B assay relative to control; conditions: K562, 48 h, read-out: Activity
NCI-H23 = test: Cytotoxicity against human NCI-H23 cells assessed as cell growth at 0.01 uM after 48 hrs by sulforhodamine B assay relative to control; conditions: NCI-H23, 48 h, read-out: Activity
HT-29 [2] = test: Cytotoxicity against human HT-29 cells assessed as cell growth at 0.01 uM after 48 hrs by sulforhodamine B assay relative to control; conditions: HT-29, 48 h, read-out: Activity
MCF7 = test: Cytotoxicity against human MCF7 cells assessed as growth inhibition after 48 hrs by sulforhodamine B assay; conditions: MCF7, 48 h
HCC 2998 = test: Cytotoxicity against human HCC2998 cells assessed as cell growth at 1 uM after 48 hrs by sulforhodamine B assay relative to control; conditions: HCC 2998, 48 h, read-out: Activity
KM12 [3] = test: Cytotoxicity against human KM12 cells assessed as growth inhibition after 48 hrs by sulforhodamine B assay; conditions: KM12, 48 h
Malme-3M [4] = test: Cytotoxicity against human MALME-3M cells assessed as cell growth at 100 uM after 48 hrs by sulforhodamine B assay relative to control; conditions: read-out: Activity
HCT-15 = test: Cytotoxicity against human HCT15 cells assessed as growth inhibition after 48 hrs by sulforhodamine B assay; conditions: HCT-15, 48 h
ACHN [5] = test: Cytotoxicity against human ACHN cells assessed as cell growth at 0.01 uM after 48 hrs by sulforhodamine B assay relative to control; conditions: read-out: Activity
BT-549 = test: Cytotoxicity against human BT549 cells assessed as cell growth at 10 uM after 48 hrs by sulforhodamine B assay relative to control; conditions: BT-549, 48 h, read-out: Activity
Malme-3M [6] = test: Cytotoxicity against human MALME-3M cells assessed as cell growth at 10 uM after 48 hrs by sulforhodamine B assay relative to control; conditions: read-out: Activity
A549 = test: Cytotoxicity against human A549/ATCC cells assessed as cell growth at 10 uM after 48 hrs by sulforhodamine B assay relative to control; conditions: A549, 48 h, read-out: Activity
TK-10 [7] = test: Cytotoxicity against human TK10 cells assessed as growth inhibition after 48 hrs by sulforhodamine B assay; conditions: TK-10, 48 h
RXF 393 = test: Cytotoxicity against human RXF393 cells assessed as cell growth at 1 uM after 48 hrs by sulforhodamine B assay relative to control; conditions: RXF 393, 48 h, read-out: Activity
NCI-H226 = test: Cytotoxicity against human NCI-H226 cells assessed as cell growth at 100 uM after 48 hrs by sulforhodamine B assay relative to control; conditions: NCI-H226, 48 h, read-out: Activity
ACHN [8] = test: Cytotoxicity against human ACHN cells assessed as cell growth at 100 uM after 48 hrs by sulforhodamine B assay relative to control; conditions: read-out: Activity
NCI/ADR-RES = test: Cytotoxicity against human NCI/ADR-RES cells assessed as cell growth at 100 uM after 48 hrs by sulforhodamine B assay relative to control; conditions: read-out: Activity
MDA-MB-468 [9] = test: Cytotoxicity against human MDA-MB-468 cells assessed as cell growth at 10 uM after 48 hrs by sulforhodamine B assay relative to control; conditions: MDA-MB-468, 48 h, read-out: Activity
UO-31 = test: Cytotoxicity against human UO31 cells assessed as cell growth at 0.01 uM after 48 hrs by sulforhodamine B assay relative to control; conditions: UO-31, 48 h, read-out: Activity
MOLT-4 = test: Cytotoxicity against human MOLT4 cells assessed as cell growth at 10 uM after 48 hrs by sulforhodamine B assay relative to control; conditions: MOLT-4, 48 h, read-out: Activity
KM12 [10] = test: Cytotoxicity against human KM12 cells assessed as cell growth at 1 uM after 48 hrs by sulforhodamine B assay relative to control; conditions: KM12, 48 h, read-out: Activity
Malme-3M [11] = test: Cytotoxicity against human MALME-3M cells assessed as cell growth at 0.01 uM after 48 hrs by sulforhodamine B assay relative to control; conditions: read-out: Activity
HT-29 [12] = test: Cytotoxicity against human HT-29 cells assessed as cell growth at 100 uM after 48 hrs by sulforhodamine B assay relative to control; conditions: HT-29, 48 h, read-out: Activity
RPMI-8226 = test: Cytotoxicity against human RPMI8226 cells assessed as cell growth at 1 uM after 48 hrs by sulforhodamine B assay relative to control; conditions: RPMI-8226, 48 h, read-out: Activity
TK-10 [13] = test: Cytotoxicity against human TK10 cells assessed as cell growth at 0.1 uM after 48 hrs by sulforhodamine B assay relative to control; conditions: TK-10, 48 h, read-out: Activity
TK-10 [14] = test: Cytotoxicity against human TK10 cells assessed as cell growth at 0.01 uM after 48 hrs by sulforhodamine B assay relative to control; conditions: TK-10, 48 h, read-out: Activity
SK-OV-3 = test: Cytotoxicity against human SKOV3 cells assessed as cell growth at 1 uM after 48 hrs by sulforhodamine B assay relative to control; conditions: SK-OV-3, 48 h, read-out: Activity
ACHN [15] = test: Cytotoxicity against human ACHN cells assessed as cell growth at 10 uM after 48 hrs by sulforhodamine B assay relative to control; conditions: read-out: Activity
SK-MEL-28 = test: Cytotoxicity against human SK-MEL-28 cells assessed as cell growth at 0.01 uM after 48 hrs by sulforhodamine B assay relative to control; conditions: SK-MEL-28, 48 h, read-out: Activity
MDA-MB-468 [16] = test: Cytotoxicity against human MDA-MB-468 cells assessed as cell growth at 100 uM after 48 hrs by sulforhodamine B assay relative to control; conditions: MDA-MB-468, 48 h, read-out: Activity
CCRF-CEM = test: Cytotoxicity against human CCRF-CEM cells assessed as cell growth at 100 uM after 48 hrs by sulforhodamine B assay relative to control; conditions: read-out: Activity
786-0 = test: Cytotoxicity against human 786-0 cells assessed as cell growth at 10 uM after 48 hrs by sulforhodamine B assay relative to control; conditions: 786-0, 48 h, read-out: Activity
K562 [17] = test: Cytotoxicity against human K562 cells assessed as cell growth at 100 uM after 48 hrs by sulforhodamine B assay relative to control; conditions: K562, 48 h, read-out: Activity

## COc1ccc(C(=O)/C=C/c2cc(-c3cc(OC)c(OC)c(OC)c3)n[nH]2)cc1OC
HCT-116
  growth at 10 µM: -65%
SF-539
  growth at 0.1 µM: 98%
MDA-MB-435
  growth at 100 µM: -73%
K562 [1]
  growth at 0.1 µM: 92%
NCI-H23
  growth at 0.01 µM: 93%
HT-29 [2]
  growth at 0.01 µM: 100%
MCF7
  LC50: 5.72 µM
  TGI: 1950 nM
HCC 2998
  growth at 1 µM: 116%
KM12 [3]
  LC50: 5.43 µM
  TGI: 2410 nM
Malme-3M [4]
  growth at 100 µM: -81%
HCT-15
  LC50: 6.4 µM
  TGI: 2.85 µM
ACHN [5]
  growth at 0.01 µM: 101%
BT-549
  growth at 10 µM: -88%
Malme-3M [6]
  growth at 10 µM: -82%
A549
  growth at 10 µM: -43%
TK-10 [7]
  LC50: 5.1 µM
  TGI: 2.6 µM
RXF 393
  growth at 1 µM: 72%
NCI-H226
  growth at 100 µM: -49%
ACHN [8]
  growth at 100 µM: -91%
NCI/ADR-RES
  growth at 100 µM: -40%
MDA-MB-468 [9]
  growth at 10 µM: -87%
UO-31
  growth at 0.01 µM: 86%
MOLT-4
  growth at 10 µM: -30%
KM12 [10]
  growth at 1 µM: 54%
Malme-3M [11]
  growth at 0.01 µM: 95%
HT-29 [12]
  growth at 100 µM: -81%
RPMI-8226
  growth at 1 µM: 2%
TK-10 [13]
  growth at 0.1 µM: 90%
TK-10 [14]
  growth at 0.01 µM: 85%
SK-OV-3
  growth at 1 µM: 100%
ACHN [15]
  growth at 10 µM: -95%
SK-MEL-28
  growth at 0.01 µM: 97%
MDA-MB-468 [16]
  growth at 100 µM: -87%
CCRF-CEM
  growth at 100 µM: -15%
786-0
  growth at 10 µM: -88%
K562 [17]
  growth at 100 µM: -15%

## COc1ccc(-c2cc(/C=C/C(=O)c3cc(OC)c(OC)c(OC)c3)[nH]n2)cc1OC
HCT-116
  growth at 10 µM: -81%
SF-539
  growth at 0.1 µM: 81%
MDA-MB-435
  growth at 100 µM: -78%
K562 [1]
  growth at 0.1 µM: 94%
NCI-H23
  growth at 0.01 µM: 94%
HT-29 [2]
  growth at 0.01 µM: 101%
MCF7
  GI50: 1060 nM
  TGI: 2500 nM
HCC 2998
  growth at 1 µM: 105%
KM12 [3]
  GI50: 780 nM
  LC50: 5.68 µM
  TGI: 2270 nM
Malme-3M [4]
  growth at 100 µM: -62%
HCT-15
  GI50: 1190 nM
  LC50: > 100 µM
  TGI: 3.85 µM
ACHN [5]
  growth at 0.01 µM: 95%
BT-549
  growth at 10 µM: -80%
Malme-3M [6]
  growth at 10 µM: -25%
A549
  growth at 10 µM: -2%
TK-10 [7]
  GI50: 3.27 µM
  LC50: 36.9 µM
  TGI: 11.8 µM
RXF 393
  growth at 1 µM: 80%
NCI-H226
  growth at 100 µM: -43%
ACHN [8]
  growth at 100 µM: -84%
NCI/ADR-RES
  growth at 100 µM: -7%
MDA-MB-468 [9]
  growth at 10 µM: -62%
UO-31
  growth at 0.01 µM: 88%
MOLT-4
  growth at 10 µM: -4%
KM12 [10]
  growth at 1 µM: 45%
Malme-3M [11]
  growth at 0.01 µM: 98%
HT-29 [12]
  growth at 100 µM: -66%
RPMI-8226
  growth at 1 µM: 11%
TK-10 [13]
  growth at 0.1 µM: 89%
TK-10 [14]
  growth at 0.01 µM: 93%
SK-OV-3
  growth at 1 µM: 87%
ACHN [15]
  growth at 10 µM: -95%
SK-MEL-28
  growth at 0.01 µM: 95%
MDA-MB-468 [16]
  growth at 100 µM: -58%
CCRF-CEM
  growth at 100 µM: -13%
786-0
  growth at 10 µM: -94%
K562 [17]
  growth at 100 µM: -16%

## COc1ccc(C(=O)/C=C/c2cc(-c3cc(OC)c(OC)c(OC)c3)n[nH]2)cc1
HCT-116
  growth at 10 µM: -22%
SF-539
  growth at 0.1 µM: 99%
MDA-MB-435
  growth at 100 µM: -44%
K562 [1]
  growth at 0.1 µM: 102%
NCI-H23
  growth at 0.01 µM: 93%
HT-29 [2]
  growth at 0.01 µM: 102%
MCF7
  LC50: 7.61 µM
  TGI: 2960 nM
HCC 2998
  growth at 1 µM: 94%
KM12 [3]
  LC50: 6.02 µM
  TGI: 3060 nM
Malme-3M [4]
  growth at 100 µM: -2%
HCT-15
  LC50: > 100 µM
  TGI: 4.37 µM
ACHN [5]
  growth at 0.01 µM: 102%
BT-549
  growth at 10 µM: -65%
Malme-3M [6]
  growth at 10 µM: -66%
A549
  growth at 10 µM: -15%
TK-10 [7]
  LC50: > 100 µM
  TGI: 5.77 µM
RXF 393
  growth at 1 µM: 67%
NCI-H226
  growth at 100 µM: -35%
ACHN [8]
  growth at 100 µM: -93%
NCI/ADR-RES
  growth at 100 µM: -6%
MDA-MB-468 [9]
  growth at 10 µM: -92%
UO-31
  growth at 0.01 µM: 87%
MOLT-4
  growth at 10 µM: -20%
KM12 [10]
  growth at 1 µM: 83%
Malme-3M [11]
  growth at 0.01 µM: 95%
HT-29 [12]
  growth at 100 µM: -19%
RPMI-8226
  growth at 1 µM: 27%
TK-10 [13]
  growth at 0.1 µM: 93%
TK-10 [14]
  growth at 0.01 µM: 89%
SK-OV-3
  growth at 1 µM: 98%
ACHN [15]
  growth at 10 µM: -83%
SK-MEL-28
  growth at 0.01 µM: 105%
MDA-MB-468 [16]
  growth at 100 µM: -78%
CCRF-CEM
  growth at 100 µM: -16%
786-0
  growth at 10 µM: -59%
K562 [17]
  growth at 100 µM: 1%
